Source: ChEMBL document CHEMBL1201862, “PubChem BioAssay data set” (2004)
The source made the active and inactive calls.

Columns and labels:
[1] = molecular target: T1, Protein skinhead-1 (Caenorhabditis elegans, UniProt P34707); assay type: functional
T1 sequence (P34707 whole entry): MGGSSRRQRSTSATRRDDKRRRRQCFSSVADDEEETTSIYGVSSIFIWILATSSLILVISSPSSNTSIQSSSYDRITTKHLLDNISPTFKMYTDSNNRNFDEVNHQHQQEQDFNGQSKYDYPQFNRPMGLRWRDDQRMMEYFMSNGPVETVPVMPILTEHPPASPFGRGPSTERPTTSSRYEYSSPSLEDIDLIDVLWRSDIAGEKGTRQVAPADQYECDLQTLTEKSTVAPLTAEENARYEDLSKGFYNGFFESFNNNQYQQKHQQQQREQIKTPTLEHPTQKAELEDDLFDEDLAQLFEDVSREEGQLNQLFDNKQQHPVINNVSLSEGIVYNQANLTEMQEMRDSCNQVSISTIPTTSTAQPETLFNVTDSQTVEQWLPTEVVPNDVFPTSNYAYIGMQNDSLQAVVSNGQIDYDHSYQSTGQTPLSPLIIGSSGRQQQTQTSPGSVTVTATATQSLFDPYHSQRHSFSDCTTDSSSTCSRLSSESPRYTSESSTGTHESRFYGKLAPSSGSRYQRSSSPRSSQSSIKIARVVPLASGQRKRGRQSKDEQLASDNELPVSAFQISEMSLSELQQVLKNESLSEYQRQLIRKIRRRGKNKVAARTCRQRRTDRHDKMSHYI

[2] = molecular target: FAD-linked sulfhydryl oxidase ALR (Homo sapiens, UniProt P55789); experiment: ALR-catalysed DTT oxidation blockers – biochemical, H2O2 detection, luminescence, cherry-pick, dose response (AID 493248)
[3] = luciferase reporter signal suppression in cells – H4 neuroglioma cells, luminescence, dose response (AID 1990); assay type: functional, cell-based
[4] = Luminescence Cell-Based Dose Response HTS to Identify Inhibitors of 5'UTR Stem-Loop Driven Prion Protein mRNA Translation in H4 Neuroglioblastoma Cells. [Related pubchem assays: 1827 (Project Summary), 1813 (Primary HTS)]; assay type: functional
[5] = alpha-synuclein stem-loop luciferase translation blockers – H4 neuroglioma cells, luminescence, confirmation (AID 1988); assay type: functional, cell-based
[6] = molecular target: T2, Streptokinase A (Streptococcus pyogenes serotype M1, UniProt P10520); experiment: viability-normalized secreted streptokinase activity reduction – plasminogen activation absorbance, OD405, dose response (AID 1914); assay type: functional, Streptococcus pyogenes M1 GAS;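 further: secreted streptokinase activity via plasminogen activation per viability signal from cell pellet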
T2 sequence (P10520 whole entry): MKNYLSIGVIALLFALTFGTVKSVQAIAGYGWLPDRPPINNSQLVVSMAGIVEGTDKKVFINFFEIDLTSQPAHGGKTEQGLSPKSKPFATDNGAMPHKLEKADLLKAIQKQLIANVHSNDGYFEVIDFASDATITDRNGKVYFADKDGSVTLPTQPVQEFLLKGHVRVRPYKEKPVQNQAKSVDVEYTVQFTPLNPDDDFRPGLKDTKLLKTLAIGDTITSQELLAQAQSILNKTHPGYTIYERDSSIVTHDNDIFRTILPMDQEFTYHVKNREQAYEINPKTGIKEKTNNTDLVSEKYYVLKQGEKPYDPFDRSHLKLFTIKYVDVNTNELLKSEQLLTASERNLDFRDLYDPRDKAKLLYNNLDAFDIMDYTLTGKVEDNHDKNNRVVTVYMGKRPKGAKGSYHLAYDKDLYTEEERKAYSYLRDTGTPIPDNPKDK

[7] = test system: Streptococcus; experiment: GAS UMAA2166 growth inhibition – luminescence, BacTiterGlo, counter-screen for streptokinase expression inhibitor project, dose response (AID 1915); assay type: functional, organism-based;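 further: potency for reduction of bacterial viability or growth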
[8] = test system: Streptococcus sp. 'group A'; experiment: Streptococcus pyogenes SK(-)GAS viability under kanamycin – luminescence, BacTiterGlo, confirmation, counter-screen for streptokinase expression inhibitor project, dose response (AID 1900); assay type: functional, organism-based
[9] = Luminescence Cell-Based Dose Retest to Confirm Inhibitors of Cancer Stem Cells. [Related pubchem assays (depositor defined):AID2717, AID2721]; assay type: functional; settings: Homo sapiens
[10] = Trypanosoma cruzi growth suppression in host cells – NIH3T3 host cells, beta-gal luminescence, confirmation (AID 2044); assay type: functional, cell-based;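 further: intracellular parasites grown in NIH/3T3 mouse fibroblasts as host cells; luminescent beta-galactosidase reporter signal from transgenic T. cruzi replicating inside host cells; inhibitors lower the luminescence signal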
[11] = NIH3T3 cell viability loss – ATP luminescence, mouse fibroblasts, counter-screen, dose response (AID 2010); assay type: functional, cell-based;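 further: cells exposed to compound for about 90 hours before reading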
[12] = microbe, parasite or virus in culture; assay type: functional; settings: Mycobacterium tuberculosis
[13] = molecular target: Cytochrome P450 2C19 (Homo sapiens, UniProt P33261); experiment: Cytochrome panel assay with activity outcomes. Panel member name: p450-cyp2c19 Compounds with AC50 equal or less than 10 uM are considered active; assay type: functional; settings: read-out: AC50
[14] = loss of viability in HepG2 cells – cell-based, CellTiter-Glo, cherry-picked, cytotoxicity control for Shn3 inhibitor project, dose response (AID 624134); assay type: functional
[15] = viability of uninfected HEp-2 cells – cell-based, HTS, cytotoxicity control for RSV inhibitor project, dose response (AID 2410); assay type: functional; settings: human respiratory syncytial virus
[16] = molecular target: T3, Rac GTPase-activating protein 1 (Homo sapiens, UniProt Q9H0H5); experiment: blockers of MgcRacGAP-driven Rac1 GTP hydrolysis – biochemical, ADP Hunter fluorescence, primary and confirmatory, confirmation (AID 624330); assay type: functional
T3 sequence (Q9H0H5 whole entry): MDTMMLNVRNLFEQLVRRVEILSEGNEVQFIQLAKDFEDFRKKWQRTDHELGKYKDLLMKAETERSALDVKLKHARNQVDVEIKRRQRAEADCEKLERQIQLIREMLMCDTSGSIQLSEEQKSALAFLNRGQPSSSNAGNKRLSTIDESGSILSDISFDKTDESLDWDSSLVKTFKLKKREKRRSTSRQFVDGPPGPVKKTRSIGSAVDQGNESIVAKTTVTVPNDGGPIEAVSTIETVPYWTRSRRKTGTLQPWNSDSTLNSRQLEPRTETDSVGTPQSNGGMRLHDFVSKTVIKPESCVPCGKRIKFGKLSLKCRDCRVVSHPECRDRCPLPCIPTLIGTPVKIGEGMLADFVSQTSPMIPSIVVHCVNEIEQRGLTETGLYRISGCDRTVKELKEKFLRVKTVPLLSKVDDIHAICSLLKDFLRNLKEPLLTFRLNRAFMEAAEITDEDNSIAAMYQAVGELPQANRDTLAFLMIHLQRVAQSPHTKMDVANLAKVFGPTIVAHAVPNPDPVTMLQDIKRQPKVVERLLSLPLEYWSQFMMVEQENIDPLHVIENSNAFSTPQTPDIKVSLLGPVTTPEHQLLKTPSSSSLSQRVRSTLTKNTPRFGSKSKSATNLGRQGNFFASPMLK

[17] = reduction of Shn3 3'UTR-driven luciferase in osteoblasts – cell-based, Clone20 osteoblasts, firefly luciferase, cherry-picked, dose response (AID 624132); assay type: functional;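 further: firefly luciferase luminescence from reporter carrying the Shn3 3'UTR in osteoblasts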

Chain of FAD-linked sulfhydryl oxidase ALR (P55789 whole entry): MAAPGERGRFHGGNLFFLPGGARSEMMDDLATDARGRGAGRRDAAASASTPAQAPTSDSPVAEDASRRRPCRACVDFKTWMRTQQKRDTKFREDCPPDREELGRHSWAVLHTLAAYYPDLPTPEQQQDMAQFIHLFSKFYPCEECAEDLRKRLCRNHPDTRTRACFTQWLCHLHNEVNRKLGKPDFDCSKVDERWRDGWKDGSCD
Chain of Cytochrome P450 2C19 (P33261 whole entry): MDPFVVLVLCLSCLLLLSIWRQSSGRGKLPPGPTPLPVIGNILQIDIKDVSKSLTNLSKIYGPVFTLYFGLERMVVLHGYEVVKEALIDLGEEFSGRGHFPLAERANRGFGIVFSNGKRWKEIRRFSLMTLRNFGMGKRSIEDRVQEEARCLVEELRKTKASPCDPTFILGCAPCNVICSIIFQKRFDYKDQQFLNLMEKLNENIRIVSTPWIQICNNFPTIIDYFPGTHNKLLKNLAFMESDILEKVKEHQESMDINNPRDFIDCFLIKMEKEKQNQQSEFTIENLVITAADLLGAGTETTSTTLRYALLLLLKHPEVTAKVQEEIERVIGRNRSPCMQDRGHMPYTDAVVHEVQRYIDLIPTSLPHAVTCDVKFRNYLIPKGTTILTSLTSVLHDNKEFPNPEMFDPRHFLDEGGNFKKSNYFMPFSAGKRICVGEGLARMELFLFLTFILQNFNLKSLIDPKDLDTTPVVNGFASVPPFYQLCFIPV

CC1CN(S(=O)(=O)c2cccc(C(=O)OCC(=O)Nc3ccc4c(c3)OCO4)c2)CC(C)O1 (stereo not drawn)
IC50 [1]: > 100 µM (inactive)

O=C(Nc1nccs1)c1ccc(-c2ccc(F)cc2)o1
IC50 [1]: > 100 µM (inactive)

COc1ccc2[nH]c(C)c(-c3csc(N)n3)c2c1
AC50 [2]: 5.23 µM (active)

CCOC(=O)c1c(C)cc(C)n2c1nc1ccccc12
IC50 [1]: > 100 µM (inactive)

Cc1ccc(-c2nc(-c3cccnc3)sc2CC(=O)Nc2ccc(C)c(Cl)c2)cc1
EC50 [3]: > 120 µM (not active) | EC50 [4]: 0.3 µM (active) | EC50 [5]: > 120 µM (not active)

O=[N+]([O-])c1cccnc1N1CCC(c2cc(-c3ccc(Cl)cc3Cl)[nH]n2)CC1
EC50 [6]: 4.61 µM (active) | EC50 [7]: 13.4 µM (active) | EC50 [8]: 2.31 µM (active) | AC50 [9]: 4.74 µM (active)

O=C(COC(=O)c1c2c(nc3ccccc13)/C(=C\c1cccs1)CCC2)Nc1ccccc1
EC50 [10]: 1.9 µM (active) | EC50 [11]: > 60 µM (inconclusive) | AC50 [9]: 1.54 µM (active)

COc1ccc(Cc2nnc(NC(=O)c3ccc(OC)c(OC)c3)s2)cc1OC
EC50 [3]: > 120 µM (not active) | EC50 [4]: > 120 µM (not active) | EC50 [5]: > 120 µM (not active)

Cc1cc(C)c2oc(-c3ccc(C)c(NC(=S)NC(=O)/C=C/c4ccco4)c3)nc2c1
CC50 [12]: > 40 µM (active)

CCN(CC)CCOC(=O)c1ccc(NC(=O)CCCN2C(=O)/C(=C\c3cccs3)SC2=S)cc1
IC50 [1]: > 100 µM (inactive)

CCCCCNCC(=O)Nc1cccc(C(=O)Nc2cccc(C(F)(F)F)c2)c1
AC50 [9]: 9.98 µM (active)

O=C1/C(=C\c2cc(Br)cc(Br)c2O)SC(=S)N1Cc1ccccc1
AC50 [9]: 0.894 µM (active)

Cc1ccccc1CS(=O)(=O)c1ccc(C(=O)N2CCOCC2)cc1[N+](=O)[O-]
EC50 [3]: > 120 µM (not active) | EC50 [4]: > 120 µM (not active) | EC50 [5]: > 120 µM (not active)

N#Cc1c2n(c3c(S)ncnc13)CCCCC2
AC50 [13]: 25.1 µM (inconclusive) | AC50 [2]: 1.65 µM (active)

CCOC(=O)c1c(-c2cccs2)csc1NC(=O)CN1CC(C)OC(C)C1 (stereo not drawn)
IC50 [1]: > 100 µM (inactive)

Cc1ccc(-c2ccc(CCC(=O)O)n2NC(=O)c2cccs2)cc1
AC50 [2]: 8.15 µM (active)

COCCNc1nnnc2c1sc1nc(N3CCOCC3)c3c(c12)CC(C)(C)OC3
EC50 [3]: 15.8 µM (active) | EC50 [4]: > 120 µM (not active) | EC50 [5]: > 120 µM (not active)

O=C(C[C@@H]1C/C=C\C[C@H](NC(=O)OCC2c3ccccc3-c3ccccc32)C(=O)OC[C@H]2CCCN2C1=O)N[C@@H](CO)Cc1ccccc1
CC50 [12]: > 40 µM (active)

N#C/C(=C\c1ccco1)c1nc2ccccc2s1
IC50 [1]: > 100 µM (inactive)

COc1ccc(C(=O)NC(=S)N2CCN(c3ccccc3OC)CC2)cc1OC
EC50 [3]: > 120 µM (not active) | EC50 [4]: > 120 µM (not active) | EC50 [5]: > 120 µM (not active)

O=c1c2ccccc2nnn1Cc1ccc(Br)cc1
IC50 [1]: 87.8 µM (inactive)

CCOc1ccc(C2c3[nH]c4ccccc4c3C[C@H]3C(=O)N(C4CCN(Cc5ccccc5)CC4)CC(=O)N23)cc1OC (stereo partly drawn)
CC50 [12]: 38.9 µM (active)

CC(C)c1nc2scc(-c3ccc(Cl)cc3)c2c(=O)n1N
CC50 [12]: > 40 µM (active)

N#Cc1ccc(NCCc2ccccn2)c([N+](=O)[O-])c1
EC50 [3]: 23.7 µM (active) | EC50 [4]: > 120 µM (not active) | EC50 [5]: > 120 µM (not active)

Cc1cc(C)nc(NC(=O)/C=C/c2cccs2)c1
AC50 [9]: 6.68 µM (active)

COc1ccccc1C1CCN(Cc2ccc3ccccc3c2)CC1
CC50 [12]: > 40 µM (active) | EC50 [10]: 1.2 µM (active) | EC50 [11]: > 60 µM (not active)

COc1ccccc1-n1c(SCC(=O)Nc2cc(C)on2)nc2c(c1=O)SCC2
AC50 [14]: > 70 µM (inactive)

CC(C)Cc1nc2oc3c(N4CCN(CCO)CC4)ncnc3c2c2c1CCCC2
CC50 [12]: 33.8 µM (active)

O=[N+]([O-])c1cc(-c2cnc3ccccc3n2)ccc1Oc1ccc(Cl)cc1
AC50 [9]: 0.628 µM (active)

Cc1onc(-c2c(Cl)cccc2Cl)c1C(=O)NNc1ccccc1
AC50 [9]: 1.44 µM (active)

CCOC(=O)Nc1sc(C(=O)N(C)C)c(C)c1C(=O)OCC
EC50 [3]: 23.9 µM (active) | EC50 [4]: > 120 µM (not active) | EC50 [5]: 76.5 µM (active)

CC1(C)Cc2nc3[nH]nc(N)c3cc2CO1
AC50 [2]: 4.26 µM (active)

COn1c(-c2ccc(Cl)cc2)nc2ccc(Cl)cc21
CC50 [15]: 35.3 µM (active) | IC50 [1]: 10.8 µM (active)

CC(=O)N1CCN(c2ccc(NCc3cccc(C)c3)cc2)CC1
IC50 [16]: 9.89 µM (active) | AC50 [2]: 0.787 µM (active)

CN1C(=O)c2ccccc2NC(=O)C1Cc1ccccc1 (stereo not drawn)
AC50 [2]: 3.26 µM (active)

CC(=O)Nc1ccc(N2C(=O)CSC2c2ccccc2)cc1 (stereo not drawn)
AC50 [2]: 0.025 µM (active)

CCCNC(=O)c1onc(CSc2ccc(Cl)cc2)c1C(=O)NCCC(C)C
AC50 [9]: 1.93 µM (active)

O=C(O)CCCN1C(=O)c2ccccc2Sc2ncccc21
IC50 [1]: > 100 µM (inactive)

CC(=O)Nc1ccc(S(=O)(=O)N(C)CC(=O)NNC(=O)c2cccs2)cc1
IC50 [1]: > 100 µM (inactive)

CC(C)c1ccc(Oc2cccc3c2S(=O)(=O)N(C2CCCC2)CC(COCc2ccccc2)O3)cc1 (stereo not drawn)
AC50 [14]: > 70 µM (inactive) | AC50 [17]: 15.5 µM (active)

COc1ccc(OC)c(NC(=O)c2cc(-c3cc(F)ccc3OCC3CCCO3)[nH]n2)c1 (stereo not drawn)
AC50 [17]: 10.5 µM (active)

O=c1/c(=C/c2ccc(O)cc2)sc2n1CCCN=2
IC50 [16]: 20.1 µM (active) | AC50 [2]: 1.16 µM (active)

CCNc1nc(NCC)nc(N/N=C/c2ccc([N+](=O)[O-])o2)n1
CC50 [12]: 39 µM (active)

Cc1ccc(N/N=C2/CCCNC2=O)cc1
AC50 [2]: 2.66 µM (active)

CC1=CC(C)[C@H](/C=N/n2c(=O)[nH]c3c([nH]c4ccc(Br)cc43)c2=O)C(C)C1 (stereo partly drawn)
EC50 [10]: 2.06 µM (active) | EC50 [11]: > 60 µM (not active) | AC50 [9]: 0.876 µM (active)
